Data: patent US9492508B2, “Parathyroid hormone analogs and uses thereof” (The General Hospital Corporation, priority 2010, dated 2016)
Square brackets hold non-standard residues; d marks the D form. Peptide text beside a SMILES is read from it. hArg = N=C(N)NCCCC[C@H](N)C(=O)O; Aib = CC(C)(N)C(=O)O

What was measured:
human PTHR1 (R0) = target: T1, human PTHR1 (R0) (Homo sapiens, UniProt Q03431); test: Competition binding, R0 conformation of human PTHR1 (COS-7 membranes, 125I-PTH(1-34) tracer, GTPγS); conditions: FIG. 5A
T1 construct: expressed in transfected cells; host or cells: COS-7 cells (membranes)
T1 sequence (Q03431 27-593): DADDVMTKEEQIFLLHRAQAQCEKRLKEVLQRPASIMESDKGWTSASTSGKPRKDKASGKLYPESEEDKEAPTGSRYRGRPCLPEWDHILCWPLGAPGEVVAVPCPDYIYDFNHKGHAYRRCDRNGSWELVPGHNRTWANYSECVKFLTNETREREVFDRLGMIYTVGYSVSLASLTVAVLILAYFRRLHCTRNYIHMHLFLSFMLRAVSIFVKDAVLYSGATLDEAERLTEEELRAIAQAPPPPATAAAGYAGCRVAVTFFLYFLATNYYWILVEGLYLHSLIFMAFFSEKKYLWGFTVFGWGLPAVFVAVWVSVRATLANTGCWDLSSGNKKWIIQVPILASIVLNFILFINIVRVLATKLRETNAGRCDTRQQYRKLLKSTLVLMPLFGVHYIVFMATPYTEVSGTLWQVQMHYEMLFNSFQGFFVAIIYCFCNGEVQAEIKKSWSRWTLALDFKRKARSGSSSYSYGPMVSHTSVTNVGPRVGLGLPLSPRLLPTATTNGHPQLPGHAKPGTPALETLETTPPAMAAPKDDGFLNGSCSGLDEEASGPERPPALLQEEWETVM
Method: (§1) Briefly, the R^0 form of the receptor can be favored by addition of the non-hydrolyzable nucleotide analog GTPγS. The RG form can be favored, for example, by co-transfection of cells with a negative dominant Gαs subunit. […] Data are means of four experiments, each performed in duplicate. Curves were fit to the data using Graph-Pad Prism 4.0.
(§2) Here, competition binding assays for the R^0 and RG PTHR1 conformation were performed in membranes prepared from transfected COS-7 cells, as described by Dean et al., Mol Endocrinol 22:156-66, 2008. Data are means of three experiments, each performed in duplicate. Curves were fit to the data using Graph-Pad Prism 4.0.

human PTHR1 (RG) = target: T2, human PTHR1 (RG) (Homo sapiens, UniProt Q03431); test: Competition binding, RG conformation of human PTHR1 (COS-7 membranes); conditions: mean of 3 experiments, read-out: Binding human PTHR1 IC50 (Log M) RG (converted)
T2 construct: expressed in transfected cells; host or cells: COS-7 cells (membranes)
T2 sequence (Q03431 27-593): T1 sequence (Q03431 27-593)
Method: as §1, §2

rat PTHR1 (R0) = target: T3, rat PTHR1 (R0) (Rattus norvegicus, UniProt P25961); test: Competition binding, R0 conformation of rat PTHR1; conditions: R0 conformation; read-out: Binding rat PTHR1 IC50 nM R0
T3 sequence (P25961 27-591): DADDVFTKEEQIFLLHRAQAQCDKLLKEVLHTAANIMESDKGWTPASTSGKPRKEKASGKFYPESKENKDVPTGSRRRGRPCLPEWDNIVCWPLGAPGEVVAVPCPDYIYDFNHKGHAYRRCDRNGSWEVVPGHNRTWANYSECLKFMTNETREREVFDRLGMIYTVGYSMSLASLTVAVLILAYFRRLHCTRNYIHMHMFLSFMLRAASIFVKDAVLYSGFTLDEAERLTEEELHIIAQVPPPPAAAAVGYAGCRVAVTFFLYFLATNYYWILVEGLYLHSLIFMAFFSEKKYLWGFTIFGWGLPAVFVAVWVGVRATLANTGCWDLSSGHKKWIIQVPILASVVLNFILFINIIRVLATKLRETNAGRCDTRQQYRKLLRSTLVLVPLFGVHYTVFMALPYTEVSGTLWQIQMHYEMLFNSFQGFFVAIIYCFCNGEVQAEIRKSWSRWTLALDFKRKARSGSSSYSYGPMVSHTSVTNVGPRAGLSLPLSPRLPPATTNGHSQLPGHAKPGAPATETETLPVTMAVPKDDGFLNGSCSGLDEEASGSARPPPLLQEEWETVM
Description: as §1

rat PTHR1 (RG) = target: T4, rat PTHR1 (RG) (Rattus norvegicus, UniProt P25961); test: Competition binding, RG conformation of rat PTHR1; conditions: FIG. 1B
T4 construct: expressed in transfected cells
T4 sequence (P25961 27-591): T3 sequence (P25961 27-591)
Description: as §1

MC3T3-E1 cells [1] = test: cAMP RIA in intact MC3T3-E1 cells; type: cell-based, mouse; conditions: 30 min, room temperature, IBMX
Method: cAMP stimulating activity of these polypeptides was also assessed, using two different methods: a radioimmunoassay (RIA; FIG. 2) and a cAMP responsive element fused to a luciferase gene (FIG. 3). Briefly, the RIA cAMP assays were performed in intact MC3T3-E1 cells, a mouse pre-osteoblastic cell line, in 96-well plates, as described by Okazaki et al. (Proc Natl Acad Sci USA 105:16525-30, 2008). […] The cAMP contents of the HCl lysates were then determined by RIA. Data are means of six experiments, each performed in duplicate. Curves were fit to the data using Graph-Pad Prism 4.0.

MC3T3-E1 cells [2] = test: cAMP response following ligand wash-out in MC3T3-E1 cells; type: cell-based, mouse; conditions: 100 nM ligand 5 min, then wash-out; FIGS. 7A, 7B
Method: Cells were treated at room temperature with vehicle or the indicated ligand (100 nM) for five minutes; for each ligand duplicate wells were used to obtain the initial (maximum cAMP values); in these wells, cells were co-incubated with ligand and IBMX. After five minutes of initial treatment, the buffer was removed, and, for the initial wells, the reactions were terminated by addition of 50 mM HCl. In the other wells, the cells were rinsed three times with buffer, and incubated in buffer for varying times, as indicated on the abscissa; after which the buffer was replaced by a buffer containing IBMX, and the cells were incubated for another five minutes. After that, the buffer was removed and the reactions were terminated by addition of 50 mM HCl. The cAMP contents of the HCl lysates were then determined by RIA.

[3] = Blood Ca++ responses in mice; type: in vivo, mice (C57 BL/6); conditions: 5 nmol/kg s.c., 4, 6, 8 and 24 hours
Method: Blood Ca^++ responses in mice were also assayed. Mice (C57 BL/6) were injected subcutaneously with either vehicle or the indicated ligand to give a final dose of 5 nmol/kg body weight, and blood was withdrawn via the tail at times after injection and assessed for Ca^++ concentration using a Bayer Rapid Lab model 348 blood analyzer. […] A similar experiment using 10 nmol/kg by intravenous injection was also conducted with similar results (FIGS. 8C and 8D).

[4] = Solubility, in vitro precipitation assay (PBS pH 7.4 vs 10 mM acetic acid); type: physicochemical; conditions: pH 7.4
Method: The relative solubilities of SP-PTH-AAK (SEQ ID NO:4) and SP-PTH (SEQ ID NO:11) in different buffers were assessed in an in vitro precipitation assay. For each polypeptide, two vials, each containing 50 μg of lyophilized polypeptide powder, were prepared; one vial was reconstituted in 50 μl of PBS at pH 7.4; the other vial was reconstituted in 50 μl of 10 mM acetic acid (pH 2.9) to give final concentrations of 1.0 mg/ml […]. After one hour at room temperature, the vials were centrifuged at 15,000×g for 2 minutes. The supernatant was removed and the protein content assayed using the Pierce BCA assay (Thermo Fischer Scientific, Rockford, Ill.). For each polypeptide, the content of the PBS sample was expressed as percent of the content of the corresponding acetic acid sample.

R0 binding at human PTH receptor as compared to PTH(1-34) (human PTHR1 (R0)): enhanced R^0 binding
IC50 (human PTHR1 (RG)): 0.372 nM
IC50 (rat PTHR1 (R0)): 0.7 nM
binding to RG form of rat PTHR1, comparison in words (rat PTHR1 (RG)): increased
EC50 (MC3T3-E1 cells [1]): 0.018 nM
cAMP MC3T3-E1 cells EC50 (Log M) (MC3T3-E1 cells [1]; 6 experiments): −10.7 ± 0.1 Log M
solubility in PBS pH 7.4 (percent of acetic acid sample), in words [4]: solubility similar to hPTH(1-34)NH2
SMILES: CC[C@H](C)[C@H](NC(=O)[C@H](CCC(=O)O)NC(=O)[C@H](C)NC(=O)[C@@H](NC(=O)[C@H](Cc1c[nH]cn1)NC(=O)[C@@H](NC(=O)[C@H](CCC(=O)O)NC(=O)[C@H](C)NC(=O)[C@@H](NC(=O)[C@H](CC(C)C)NC(=O)[C@H](CCCCN)NC(=O)[C@H](Cc1c[nH]cn1)NC(=O)[C@H](CC(C)C)NC(=O)[C@H](Cc1ccccc1)NC(=O)[C@H](C)NC(=O)[C@H](CCCNC(=N)N)NC(=O)[C@H](CCCNC(=N)N)NC(=O)[C@H](CCCNC(=N)N)NC(=O)[C@H](C)NC(=O)[C@H](CC(=O)O)NC(=O)[C@H](CCC(N)=O)NC(=O)[C@@H](NC(=O)[C@H](Cc1c[nH]c2ccccc12)NC(=O)[C@H](CCCCN)NC(=O)[C@H](C)NC(=O)[C@H](CCCCNC(=N)N)NC(=O)[C@H](CCC(N)=O)NC(=O)[C@H](Cc1c[nH]cn1)NC(=O)[C@H](CCSC)NC(=O)[C@H](CC(C)C)NC(=O)[C@H](CCC(N)=O)NC(=O)[C@@H](NC(=O)[C@H](CCC(=O)O)NC(=O)C(C)(C)NC(=O)[C@@H](NC(=O)[C@H](C)N)C(C)C)[C@@H](C)CC)[C@@H](C)CC)[C@@H](C)CC)[C@@H](C)CC)[C@@H](C)O)C(N)=O [AIB-SP-PTH-AAK, [Ala^1,12,18,22,Aib^3,Gln^10,Har^11,Trp^14,Lys^26]PTH(1-14)/PTHrP(15-36)] (H-AV[Aib]EIQLMHQ[hArg]AKWIQDARRRAFLHKLIAEIHTAEI-NH2; N-terminus assumed)
cAMP MC3T3-E1 cells Emax (pmole/well) (MC3T3-E1 cells [1]): 57.9 ± 13.9 pmole/well
cAMP-stimulating activity after ligand wash-out (MC3T3-E1 cells [2]): maintained cAMP-stimulating activity for longer periods of time than PTH(1-34)
blood calcium levels at later time points vs PTH(1-34) or vehicle [3]: increased
